Measured values as given in patent publication US9179694B2, “Method and composition for enhancing milk production and milk component concentrations” (PURINA ANIMAL NUTRITION LLC, priority 2003, dated 2015).

Assay: Milk production (as is basis) in sorbitol feeding trials
Type: in vivo, Holstein cows
Method: Each cow of each of the six different trials (Control Trial #1, Control Trial #2, Pre-Partum Trial #1, Pre-Partum Trial #2, Pre/Post Trial #1, and Pre/Post Trial #2) was milked three times daily and the weight of produced milk by each cow was recorded at each milking. The milk from each cow was sampled once per week (⅓ of the sample volume from each of the three milkings occurring on the weekly milk sampling day) and was analyzed for true protein, total fat, lactose, and total solids, as detailed in the property determination and characterization techniques presented above. Additionally, samples of blood were periodically obtained from each cow during the four trials (Control Trial 2, Pre-Partum Trial #2, Pre/Post Trial #1, and Pre/Post Trial #2) encompassed in Example Two and were analyzed for non-esterified fatty acid (NEFA) content as detailed in the property determination and characterization techniques presented above. No NEFA analysis was conducted on the cows employed in Control Trial #1 or Pre-Partum Trial #1 that are the subject of Example One. Example One includes Control Trial #1 and Pre-Partum Trial #1. Both primiparious cows and multiparious cows were included in Control Trial #1 and Pre-Partum Trial #1. Five primiparious cows and fifteen multiparious cows were included in Control Trial #1; likewise, five primiparious cows and fifteen multiparious cows were included in Pre-Partum Trial #1. All cows included in Control Trial #1 and Pre-Partum Trial #1 were Holsteins. Example Two includes Control Trial #2, Pre-Partum Trial #2, Pre/Post Trial #1, and Pre/Post Trial #2. Only multiparious, Holstein cows were included in Control Trial #2, Pre-Partum Trial #1, Pre/Post Trial #1, and Pre/Post Trial #2. Eighteen multiparious cows were included in both Control Trial #2 and Pre-Partum Trial #2, while sixteen multiparious cows were included in Pre/Post Trial #1 and seventeen multiparious cows were included in Pre/Post Trial #2.

For `OC[C@@H](O)[C@@H](O)[C@H](O)[C@@H](O)CO` [sorbitol], the “Milk Production (As Is Basis)” value (Pre-Partum Trial #1 (75/0/0 g/day in wk −3..−1/+1..+4/+5..+8), multiparious cows, weeks +1 through +8) was 99.9 lbs/day, the “Milk Production (As Is Basis)” value (Pre-Partum Trial #1 (75/0/0 g/day in wk −3..−1/+1..+4/+5..+8), primiparious cows, weeks +1 through +8) was 71.7 lbs/day and the “increase in milk production” value (Pre-Partum Trial #1 (75 g/day wk −3..−1 only) versus Control Trial #1, multiparious cows, weeks +1 through +8) was 9.2%. The “Milk Production (As Is Basis)” value (Pre-Partum Trial #2 (75/0/100 g/day in wk −3..−1/+1..+4/+5..+8), multiparious cows, week +1) was 62.8 lbs/day, the “Milk Production (As Is Basis)” value (Pre-Partum Trial #2 (75/0/100 g/day in wk −3..−1/+1..+4/+5..+8), multiparious cows, week +2) was 92.6 lbs/day and the “Milk Production (As Is Basis)” value (Pre-Partum Trial #2 (75/0/100 g/day in wk −3..−1/+1..+4/+5..+8), multiparious cows, week +3) was 102 lbs/day. For the same compound, the “Milk Production (As Is Basis)” value (Pre-Partum Trial #2 (75/0/100 g/day in wk −3..−1/+1..+4/+5..+8), multiparious cows, week +4) was 111 lbs/day, the “Milk Production (As Is Basis)” value (Pre-Partum Trial #2 (75/0/100 g/day in wk −3..−1/+1..+4/+5..+8), multiparious cows, week +5) was 115 lbs/day and the “Milk Production (As Is Basis)” value (Pre-Partum Trial #2 (75/0/100 g/day in wk −3..−1/+1..+4/+5..+8), multiparious cows, week +6) was 115 lbs/day. For the same compound, the “Milk Production (As Is Basis)” value (Pre-Partum Trial #2 (75/0/100 g/day in wk −3..−1/+1..+4/+5..+8), multiparious cows, week +7) was 115 lbs/day, the “Milk Production (As Is Basis)” value (Pre-Partum Trial #2 (75/0/100 g/day in wk −3..−1/+1..+4/+5..+8), multiparious cows, week +8) was 111 lbs/day and the “Milk Production (As Is Basis)” value (Pre-Partum Trial #2 (75/0/100 g/day in wk −3..−1/+1..+4/+5..+8), multiparious cows, weeks +1 through +4) was 92.0 lbs/day. For the same compound, the “Milk Production (As Is Basis)” value (Pre-Partum Trial #2 (75/0/100 g/day in wk −3..−1/+1..+4/+5..+8), multiparious cows, weeks +1 through +8) was 103 lbs/day, the “Milk Production (As Is Basis)” value (Pre-Partum Trial #2 (75/0/100 g/day in wk −3..−1/+1..+4/+5..+8), multiparious cows, weeks +5 through +8) was 115 lbs/day and the “Milk Production (As Is Basis)” value (Pre/Post Trial #1 (150/125/100 g/day in wk −3..−1/+1..+4/+5..+8), multiparious cows, week +1) was 67.9 lbs/day. For the same compound, the “Milk Production (As Is Basis)” value (Pre/Post Trial #1 (150/125/100 g/day in wk −3..−1/+1..+4/+5..+8), multiparious cows, week +1, two-trial comparison with Control Trial #2 (Table 23)) was 68.4 lbs/day, the “Milk Production (As Is Basis)” value (Pre/Post Trial #1 (150/125/100 g/day in wk −3..−1/+1..+4/+5..+8), multiparious cows, week +2) was 93.8 lbs/day and the “Milk Production (As Is Basis)” value (Pre/Post Trial #1 (150/125/100 g/day in wk −3..−1/+1..+4/+5..+8), multiparious cows, week +2, two-trial comparison with Control Trial #2 (Table 23)) was 93.9 lbs/day. For the same compound, the “Milk Production (As Is Basis)” value (Pre/Post Trial #1 (150/125/100 g/day in wk −3..−1/+1..+4/+5..+8), multiparious cows, week +3) was 104 lbs/day, the “Milk Production (As Is Basis)” value (Pre/Post Trial #1 (150/125/100 g/day in wk −3..−1/+1..+4/+5..+8), multiparious cows, week +3, two-trial comparison with Control Trial #2 (Table 23)) was 104 lbs/day and the “Milk Production (As Is Basis)” value (Pre/Post Trial #1 (150/125/100 g/day in wk −3..−1/+1..+4/+5..+8), multiparious cows, week +4) was 109 lbs/day. The “Milk Production (As Is Basis)” value (Pre/Post Trial #1 (150/125/100 g/day in wk −3..−1/+1..+4/+5..+8), multiparious cows, week +4, two-trial comparison with Control Trial #2 (Table 23)) was 109 lbs/day, the “Milk Production (As Is Basis)” value (Pre/Post Trial #1 (150/125/100 g/day in wk −3..−1/+1..+4/+5..+8), multiparious cows, week +5) was 113 lbs/day and the “Milk Production (As Is Basis)” value (Pre/Post Trial #1 (150/125/100 g/day in wk −3..−1/+1..+4/+5..+8), multiparious cows, week +5, two-trial comparison with Control Trial #2 (Table 23)) was 113 lbs/day. The “Milk Production (As Is Basis)” value (Pre/Post Trial #1 (150/125/100 g/day in wk −3..−1/+1..+4/+5..+8), multiparious cows, week +6) was 113 lbs/day, the “Milk Production (As Is Basis)” value (Pre/Post Trial #1 (150/125/100 g/day in wk −3..−1/+1..+4/+5..+8), multiparious cows, week +6, two-trial comparison with Control Trial #2 (Table 23)) was 113 lbs/day and the “Milk Production (As Is Basis)” value (Pre/Post Trial #1 (150/125/100 g/day in wk −3..−1/+1..+4/+5..+8), multiparious cows, week +7) was 112 lbs/day. The “Milk Production (As Is Basis)” value (Pre/Post Trial #1 (150/125/100 g/day in wk −3..−1/+1..+4/+5..+8), multiparious cows, week +7, two-trial comparison with Control Trial #2 (Table 23)) was 112 lbs/day, the “Milk Production (As Is Basis)” value (Pre/Post Trial #1 (150/125/100 g/day in wk −3..−1/+1..+4/+5..+8), multiparious cows, week +8) was 114 lbs/day and the “Milk Production (As Is Basis)” value (Pre/Post Trial #1 (150/125/100 g/day in wk −3..−1/+1..+4/+5..+8), multiparious cows, week +8, two-trial comparison with Control Trial #2 (Table 23)) was 115 lbs/day. The “Milk Production (As Is Basis)” value (Pre/Post Trial #1 (150/125/100 g/day in wk −3..−1/+1..+4/+5..+8), multiparious cows, weeks +1 through +4) was 93.6 lbs/day, the “Milk Production (As Is Basis)” value (Pre/Post Trial #1 (150/125/100 g/day in wk −3..−1/+1..+4/+5..+8), multiparious cows, weeks +1 through +4, two-trial comparison with Control Trial #2 (Table 23)) was 94.1 lbs/day and the “Milk Production (As Is Basis)” value (Pre/Post Trial #1 (150/125/100 g/day in wk −3..−1/+1..+4/+5..+8), multiparious cows, weeks +1 through +8) was 103 lbs/day. For the same compound, the “Milk Production (As Is Basis)” value (Pre/Post Trial #1 (150/125/100 g/day in wk −3..−1/+1..+4/+5..+8), multiparious cows, weeks +1 through +8, two-trial comparison with Control Trial #2 (Table 23)) was 104 lbs/day, the “Milk Production (As Is Basis)” value (Pre/Post Trial #1 (150/125/100 g/day in wk −3..−1/+1..+4/+5..+8), multiparious cows, weeks +5 through +8) was 113 lbs/day and the “Milk Production (As Is Basis)” value (Pre/Post Trial #1 (150/125/100 g/day in wk −3..−1/+1..+4/+5..+8), multiparious cows, weeks +5 through +8, two-trial comparison with Control Trial #2 (Table 23)) was 113 lbs/day. The “Milk Production (As Is Basis)” value (Pre/Post Trial #2 (75/75/100 g/day in wk −3..−1/+1..+4/+5..+8), multiparious cows, week +1) was 66.4 lbs/day, the “Milk Production (As Is Basis)” value (Pre/Post Trial #2 (75/75/100 g/day in wk −3..−1/+1..+4/+5..+8), multiparious cows, week +2) was 92.8 lbs/day and the “Milk Production (As Is Basis)” value (Pre/Post Trial #2 (75/75/100 g/day in wk −3..−1/+1..+4/+5..+8), multiparious cows, week +3) was 102 lbs/day. The “Milk Production (As Is Basis)” value (Pre/Post Trial #2 (75/75/100 g/day in wk −3..−1/+1..+4/+5..+8), multiparious cows, week +4) was 108 lbs/day, the “Milk Production (As Is Basis)” value (Pre/Post Trial #2 (75/75/100 g/day in wk −3..−1/+1..+4/+5..+8), multiparious cows, week +5) was 113 lbs/day and the “Milk Production (As Is Basis)” value (Pre/Post Trial #2 (75/75/100 g/day in wk −3..−1/+1..+4/+5..+8), multiparious cows, week +6) was 113 lbs/day. For the same compound, the “Milk Production (As Is Basis)” value (Pre/Post Trial #2 (75/75/100 g/day in wk −3..−1/+1..+4/+5..+8), multiparious cows, week +7) was 110 lbs/day, the “Milk Production (As Is Basis)” value (Pre/Post Trial #2 (75/75/100 g/day in wk −3..−1/+1..+4/+5..+8), multiparious cows, week +8) was 108 lbs/day and the “Milk Production (As Is Basis)” value (Pre/Post Trial #2 (75/75/100 g/day in wk −3..−1/+1..+4/+5..+8), multiparious cows, weeks +1 through +4) was 91.7 lbs/day. The “Milk Production (As Is Basis)” value (Pre/Post Trial #2 (75/75/100 g/day in wk −3..−1/+1..+4/+5..+8), multiparious cows, weeks +1 through +8) was 102 lbs/day and the “Milk Production (As Is Basis)” value (Pre/Post Trial #2 (75/75/100 g/day in wk −3..−1/+1..+4/+5..+8), multiparious cows, weeks +5 through +8) was 111 lbs/day.
